Assay results published in patent publication US20260365670A1, “EGFR INHIBITORS AND USES THEREOF” (DIZAL (JIANGSU) PHARMACEUTICAL CO., LTD., priority 2022, published 2026).
Read-outs that look alike come from different tables or passages of the source.

Columns and labels:
EGFR Exon19Del/T790M = molecular target: T1, EGFR Exon19Del/T790M (Homo sapiens, UniProt P00533, DEL746-750/T790M); experiment: Inhibition of EGFR Exon19Del/T790M biochemical enzymatic activity (HTRF); conditions: 1 mM ATP
T1 construct: purchased Carna Bio
T1 sequence (P00533 with tags, fused parts or gaps DEL746-750/T790M limits assumed): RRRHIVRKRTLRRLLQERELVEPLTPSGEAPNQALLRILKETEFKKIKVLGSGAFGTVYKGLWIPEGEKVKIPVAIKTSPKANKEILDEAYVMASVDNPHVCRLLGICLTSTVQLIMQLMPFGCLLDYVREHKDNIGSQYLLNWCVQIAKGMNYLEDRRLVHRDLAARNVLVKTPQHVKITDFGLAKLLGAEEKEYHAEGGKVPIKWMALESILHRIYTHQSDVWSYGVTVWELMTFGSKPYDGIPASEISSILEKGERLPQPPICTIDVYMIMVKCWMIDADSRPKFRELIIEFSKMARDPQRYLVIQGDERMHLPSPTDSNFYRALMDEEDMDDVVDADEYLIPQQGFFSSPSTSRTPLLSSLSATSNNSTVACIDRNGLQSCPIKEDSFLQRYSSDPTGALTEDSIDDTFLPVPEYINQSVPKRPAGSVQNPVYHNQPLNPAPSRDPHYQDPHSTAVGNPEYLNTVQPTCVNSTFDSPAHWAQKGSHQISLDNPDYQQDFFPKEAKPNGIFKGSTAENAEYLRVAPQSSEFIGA
Summary of the method: (§1)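 HTRF kinase assay: each EGFR enzyme phosphorylated 1 μM biotinylated TK substrate with 1 mM ATP in buffer containing 5 mM MgCl2, 1 mM MnCl2, 0.01% CHAPS, 1 mM DTT, 0.5% DMSO. After 1 h at room temperature, EDTA detection mix stopped the reaction. IC50 came from a four-parameter logistic fit of the 665/615 nm ratio.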

PC-9 = experiment: Cell proliferation assay, PC-9 cells (CellTiter-Glo, 72 hours); type: cell-based; conditions: PC9 cells
Summary of the method: (§2)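 Cells are exposed to graded compound concentrations after overnight plating, using 500 PC-9 or 5000 Ba/F3 per well. Baseline-subtracted viability is compared with vehicle to give percent proliferation, then GI50.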

EGFR[T790M/C797S/L858R] = molecular target: T2, EGFR[T790M/C797S/L858R] (Homo sapiens, UniProt P00533, C797S/L858R/T790M); experiment: Inhibition of EGFR[T790M/C797S/L858R] biochemical enzymatic activity (HTRF); conditions: 1 mM ATP
T2 construct: purchased Carna Bio
Summary of the method: as §1

EGFR (C797S L858R) = molecular target: T3, EGFR (C797S L858R) (Homo sapiens, UniProt P00533, C797S/L858R); experiment: Inhibition of EGFR (C797S L858R) biochemical enzymatic activity (HTRF); conditions: 1 mM ATP
T3 construct: purchased signalchem
T3 sequence (P00533 25-1210 C797S/L858R): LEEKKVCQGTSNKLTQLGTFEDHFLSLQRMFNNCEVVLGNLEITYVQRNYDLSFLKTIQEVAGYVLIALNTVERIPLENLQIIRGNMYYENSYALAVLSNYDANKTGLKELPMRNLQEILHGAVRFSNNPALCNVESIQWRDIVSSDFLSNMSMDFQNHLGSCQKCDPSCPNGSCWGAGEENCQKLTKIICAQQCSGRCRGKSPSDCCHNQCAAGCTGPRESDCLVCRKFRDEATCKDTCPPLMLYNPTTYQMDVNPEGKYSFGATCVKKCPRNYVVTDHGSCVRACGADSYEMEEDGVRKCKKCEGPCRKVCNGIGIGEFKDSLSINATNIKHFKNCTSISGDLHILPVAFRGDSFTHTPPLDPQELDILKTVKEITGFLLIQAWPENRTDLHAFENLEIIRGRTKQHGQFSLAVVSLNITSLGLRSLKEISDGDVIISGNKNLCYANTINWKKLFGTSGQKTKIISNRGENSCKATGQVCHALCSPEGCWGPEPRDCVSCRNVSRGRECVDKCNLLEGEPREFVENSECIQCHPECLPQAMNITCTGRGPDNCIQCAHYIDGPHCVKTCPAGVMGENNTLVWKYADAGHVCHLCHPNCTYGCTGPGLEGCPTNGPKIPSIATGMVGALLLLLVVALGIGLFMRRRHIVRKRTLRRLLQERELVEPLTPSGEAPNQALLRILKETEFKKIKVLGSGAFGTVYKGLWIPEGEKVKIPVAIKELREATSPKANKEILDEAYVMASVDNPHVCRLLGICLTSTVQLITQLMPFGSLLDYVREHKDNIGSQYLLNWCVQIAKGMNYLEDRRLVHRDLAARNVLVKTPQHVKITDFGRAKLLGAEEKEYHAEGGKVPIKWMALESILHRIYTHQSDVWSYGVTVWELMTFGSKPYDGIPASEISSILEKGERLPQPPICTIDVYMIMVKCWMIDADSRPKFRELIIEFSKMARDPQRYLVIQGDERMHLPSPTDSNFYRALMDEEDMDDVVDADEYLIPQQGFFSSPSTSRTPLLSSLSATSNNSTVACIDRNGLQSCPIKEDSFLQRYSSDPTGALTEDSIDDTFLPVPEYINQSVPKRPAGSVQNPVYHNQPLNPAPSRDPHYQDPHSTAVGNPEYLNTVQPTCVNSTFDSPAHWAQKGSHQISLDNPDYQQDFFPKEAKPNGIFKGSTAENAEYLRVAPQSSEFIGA
Summary of the method: as §1

EGFR wild type = molecular target: T4, EGFR wild type (Homo sapiens, UniProt P00533); experiment: Inhibition of EGFR wild type biochemical enzymatic activity (HTRF); conditions: 1 mM ATP
T4 construct: purchased Carna Bio
Summary of the method: as §1

EGFR Exon19Del = molecular target: T5, EGFR Exon19Del (Homo sapiens, UniProt P00533, DEL746-750); experiment: Inhibition of EGFR Exon19Del biochemical enzymatic activity (HTRF)
T5 construct: purchased Carna Bio
T5 sequence (P00533 with tags, fused parts or gaps DEL746-750 limits assumed): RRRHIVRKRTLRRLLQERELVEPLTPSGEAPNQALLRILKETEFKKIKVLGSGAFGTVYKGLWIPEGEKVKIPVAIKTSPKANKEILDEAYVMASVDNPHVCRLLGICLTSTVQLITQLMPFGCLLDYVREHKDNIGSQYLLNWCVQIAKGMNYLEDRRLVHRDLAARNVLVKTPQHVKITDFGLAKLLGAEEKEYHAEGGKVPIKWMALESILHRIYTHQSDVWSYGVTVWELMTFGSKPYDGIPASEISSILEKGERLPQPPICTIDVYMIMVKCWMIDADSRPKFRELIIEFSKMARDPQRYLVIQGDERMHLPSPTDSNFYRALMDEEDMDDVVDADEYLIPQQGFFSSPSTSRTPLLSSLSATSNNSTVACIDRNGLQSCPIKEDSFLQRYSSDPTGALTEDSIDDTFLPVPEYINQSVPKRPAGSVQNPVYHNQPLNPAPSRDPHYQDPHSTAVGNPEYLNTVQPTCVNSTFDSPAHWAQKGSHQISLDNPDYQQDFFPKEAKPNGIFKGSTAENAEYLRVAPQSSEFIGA
Summary of the method: as §1

[1] = test system: Ba/F3 cells expressing EGFR mutations; experiment: Cell proliferation assay, Ba/F3 cells expressing EGFR mutations (CellTiter-Glo, 72 hours); type: cell-based
Summary of the method: as §2

EGFR (d746-750 C797S) = molecular target: T6, EGFR (d746-750 C797S) (Homo sapiens, UniProt P00533, C797S/DEL746-750); experiment: Inhibition of EGFR (d746-750 C797S) biochemical enzymatic activity (HTRF); conditions: 1 mM ATP
T6 construct: purchased signalchem
T6 sequence (P00533 with tags, fused parts or gaps DEL746-750/C797S limits assumed): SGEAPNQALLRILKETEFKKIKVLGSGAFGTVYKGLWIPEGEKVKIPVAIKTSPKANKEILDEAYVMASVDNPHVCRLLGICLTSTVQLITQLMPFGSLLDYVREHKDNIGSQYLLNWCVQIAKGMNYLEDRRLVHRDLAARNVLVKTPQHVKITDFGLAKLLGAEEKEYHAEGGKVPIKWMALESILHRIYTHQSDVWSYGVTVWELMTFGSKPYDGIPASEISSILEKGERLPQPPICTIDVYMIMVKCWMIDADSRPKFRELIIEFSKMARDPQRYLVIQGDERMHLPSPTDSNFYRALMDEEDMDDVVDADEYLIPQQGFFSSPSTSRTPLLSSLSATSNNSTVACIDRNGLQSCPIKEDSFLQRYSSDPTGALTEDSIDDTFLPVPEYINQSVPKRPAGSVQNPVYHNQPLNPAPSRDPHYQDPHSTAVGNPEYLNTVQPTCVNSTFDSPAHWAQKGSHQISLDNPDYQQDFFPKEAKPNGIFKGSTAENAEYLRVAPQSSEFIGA
Summary of the method: as §1

EGFR L858R/T790M = molecular target: T7, EGFR L858R/T790M (Homo sapiens, UniProt P00533, L858R/T790M); experiment: Inhibition of EGFR L858R/T790M biochemical enzymatic activity (HTRF); conditions: 1 mM ATP
T7 construct: purchased Carna Bio
Summary of the method: as §1

[2] = molecular target: T8, EGFR[T790M/C797S/d746-750] (Homo sapiens, UniProt P00533, C797S/DEL746-750/T790M); experiment: Inhibition of EGFR[T790M/C797S/d746-750] biochemical enzymatic activity (HTRF)
T8 construct: purchased Carna Bio
T8 sequence (P00533 with tags, fused parts or gaps DEL746-750/T790M/C797S limits assumed): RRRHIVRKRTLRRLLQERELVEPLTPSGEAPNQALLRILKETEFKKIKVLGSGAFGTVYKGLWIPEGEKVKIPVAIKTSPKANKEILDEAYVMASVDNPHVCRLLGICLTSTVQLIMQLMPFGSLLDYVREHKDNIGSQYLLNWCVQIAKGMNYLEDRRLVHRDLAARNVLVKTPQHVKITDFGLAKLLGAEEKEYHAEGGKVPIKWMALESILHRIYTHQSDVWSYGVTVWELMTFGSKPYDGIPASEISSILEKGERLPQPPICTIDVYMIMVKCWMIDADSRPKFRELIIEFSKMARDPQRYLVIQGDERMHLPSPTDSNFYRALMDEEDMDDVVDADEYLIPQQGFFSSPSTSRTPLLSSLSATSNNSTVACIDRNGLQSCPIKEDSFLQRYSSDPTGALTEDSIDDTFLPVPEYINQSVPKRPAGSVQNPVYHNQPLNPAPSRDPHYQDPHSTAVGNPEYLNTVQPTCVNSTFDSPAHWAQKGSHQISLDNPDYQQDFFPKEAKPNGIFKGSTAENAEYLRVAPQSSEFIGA
Summary of the method: as §1

EGFR L858R = molecular target: T9, EGFR L858R (Homo sapiens, UniProt P00533, L858R); experiment: Inhibition of EGFR L858R biochemical enzymatic activity (HTRF); conditions: 1 mM ATP
T9 construct: purchased Carna Bio
T9 sequence (P00533 25-1210 L858R): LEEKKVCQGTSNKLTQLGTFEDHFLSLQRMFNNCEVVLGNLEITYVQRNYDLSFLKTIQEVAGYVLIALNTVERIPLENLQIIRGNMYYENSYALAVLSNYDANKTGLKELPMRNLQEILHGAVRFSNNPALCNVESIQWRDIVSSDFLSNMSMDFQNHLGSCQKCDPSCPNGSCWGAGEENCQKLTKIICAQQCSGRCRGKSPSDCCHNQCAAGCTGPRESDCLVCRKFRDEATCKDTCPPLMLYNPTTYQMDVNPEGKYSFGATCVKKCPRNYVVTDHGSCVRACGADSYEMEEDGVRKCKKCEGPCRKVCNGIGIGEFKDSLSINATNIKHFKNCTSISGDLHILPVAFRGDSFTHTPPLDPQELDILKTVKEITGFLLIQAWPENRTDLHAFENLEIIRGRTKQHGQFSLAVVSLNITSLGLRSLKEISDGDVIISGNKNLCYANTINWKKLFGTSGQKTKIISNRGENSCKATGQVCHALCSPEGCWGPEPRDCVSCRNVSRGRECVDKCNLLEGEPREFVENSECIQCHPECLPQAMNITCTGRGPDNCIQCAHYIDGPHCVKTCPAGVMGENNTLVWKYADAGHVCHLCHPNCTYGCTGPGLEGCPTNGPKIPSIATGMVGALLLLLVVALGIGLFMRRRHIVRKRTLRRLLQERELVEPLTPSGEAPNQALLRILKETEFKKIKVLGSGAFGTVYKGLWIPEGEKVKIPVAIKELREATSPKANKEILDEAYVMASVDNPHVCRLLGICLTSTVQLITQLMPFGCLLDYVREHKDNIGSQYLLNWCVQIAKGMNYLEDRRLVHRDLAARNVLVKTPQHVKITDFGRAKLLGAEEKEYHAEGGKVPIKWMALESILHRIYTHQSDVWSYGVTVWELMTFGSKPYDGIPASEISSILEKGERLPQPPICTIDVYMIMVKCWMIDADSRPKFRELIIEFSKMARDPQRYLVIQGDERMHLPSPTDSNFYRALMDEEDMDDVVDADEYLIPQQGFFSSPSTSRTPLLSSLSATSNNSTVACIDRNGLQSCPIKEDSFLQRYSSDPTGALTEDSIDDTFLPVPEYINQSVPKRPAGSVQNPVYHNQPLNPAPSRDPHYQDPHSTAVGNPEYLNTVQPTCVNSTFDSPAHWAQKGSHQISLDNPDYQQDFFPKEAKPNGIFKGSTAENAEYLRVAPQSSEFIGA
Summary of the method: as §1

In the case of `Cc1cc2cc(n1)-c1cnn(C)c1OCCCCCn1c(nc3ccc4c(c31)CCN(CCN(C)C)C4)NC2=O` [Example B23, 18-[2-(Dimethylamino)ethyl]-5,30-dimethyl-7-oxa-4,5,13,18,24,26,31-heptaazahexacyclo[26.3.1.0^{2,6}.0^{13,25}.0^{14,23}.0^{15,20}]dotriaconta-1(31),2(6),3,14,20,22,24,28(32),29-nonaen-27-one], the IC50 (EGFR Exon19Del/T790M; IC50 @Del19-T790M, EGFR Exon19Del/T790M, 1 h at room temperature) is reported as 3.8 nM, the GI50 (PC-9; Homo sapiens, PC-9, 72 h, read-out: GI50 PC9) is reported as 113 nM and the IC50 (EGFR[T790M/C797S/L858R]; IC50 @T790M- C797S - L858R, EGFR[T790M/C797S/L858R], 1 h at room temperature) is reported as 5.4 nM. It also gave an IC50 (EGFR (C797S L858R); IC50 @L858-C797S, EGFR (C797S L858R), 1 h at room temperature) of 73 nM, an IC50 (EGFR wild type; IC50 @WT, EGFR wild type, 1 h at room temperature) of over 5000 nM and an IC50 (EGFR Exon19Del; IC50 @Del19, EGFR Exon19Del, 1 mM ATP, 1 h at room temperature) of 16 nM. The GI50 ([1]; Mus musculus, BaF3, 72 h, BaF3 cells, EGFR DEL19 - C797S, read-out: GI50 DEL19 - C797S/BaF3) was 22 nM, the GI50 ([1]; Mus musculus, BaF3, 72 h, BaF3 cells, EGFR DEL19 - T790-C797S, read-out: GI50 DEL19 - T790-C797S/BaF3) was 15 nM and the GI50 ([1]; Mus musculus, BaF3, 72 h, BaF3 cells, EGFR L858R - C797S, read-out: GI50 L858R - C797S/BaF3) was 195 nM. It also gave a GI50 ([1]; Mus musculus, BaF3, 72 h, BaF3 cells, EGFR L858R - T790-C797S, read-out: GI50 L858R - T790-C797S/BaF3) of 5.9 nM, a GI50 ([1]; Mus musculus, BaF3, 72 h, BaF3 cells, EGFR L858R, read-out: GI50 L858R/BaF3) of 442 nM and a GI50 ([1]; Mus musculus, BaF3, 72 h, EGFR DEL19 - T790M, read-out: GI50 DEL19 - T790M) of 7.2 nM. It also gave an IC50 (EGFR (d746-750 C797S); IC50 @Del19-C797S, EGFR (d746-750 C797S), 1 h at room temperature) of 6.5 nM, an IC50 (EGFR L858R/T790M; IC50 @L858R-T790M, EGFR L858R/T790M, 1 h at room temperature) of 12 nM and an IC50 ([2]; IC50 @T790M - C797S - Del19, EGFR[T790M/C797S/d746-750], 1 mM ATP, 1 h at room temperature) of 2.5 nM. For the same molecule, the IC50 (EGFR L858R; IC50 @L858R, 1 h at room temperature) was over 5000 nM.
With `CN1C2CC1CN(c1ccc3nc4n(c3c1)C13CCC(CN(CCOc5c(cnn5C)-c5cc(cn(C)c5=O)C(=O)N4)C1)C3)C2` (single isomer, unassigned) [Example A98A] the IC50 (EGFR Exon19Del/T790M; EGFR Del19-T790M, 1 h, room temperature, read-out: IC50 (nM) @Del19-T790M) was 3410 nM, the GI50 (PC-9; CellTiter-Glo, read-out: PC9 GI50) was 297 nM and the IC50 (EGFR[T790M/C797S/L858R]; EGFR T790M-C797S-L858R, 1 h, room temperature, read-out: IC50 (nM) @T790M- C797S - L858R) was over 5000 nM. For the same molecule, the IC50 (EGFR (C797S L858R); EGFR L858-C797S, 1 h, room temperature, read-out: IC50 (nM) @L858-C797S) was 3370 nM, the IC50 (EGFR wild type; EGFR WT, 1 h, room temperature, read-out: IC50 (nM) @WT) was over 5000 nM and the IC50 (EGFR Exon19Del; EGFR Del19, 1 mM ATP, 1 h, room temperature, read-out: IC50 @Del19) was 235 nM. The GI50 ([1]; BaF3 cells, EGFR DEL19-C797S, CellTiter-Glo, read-out: DEL19-C797S/BaF3 GI50) was 95 nM, the GI50 ([1]; BaF3 cells, EGFR DEL19-T790-C797S, CellTiter-Glo, read-out: DEL19-T790-C797S/BaF3 GI50) was 340 nM and the GI50 ([1]; BaF3 cells, EGFR L858R, CellTiter-Glo, read-out: L858R/BaF3 GI50) was 47 nM. For the same molecule, the GI50 ([1]; BaF3 cells, EGFR L858R-C797S, CellTiter-Glo, read-out: L858R-C797S/BaF3 GI50) was 173 nM, the GI50 ([1]; BaF3 cells, EGFR L858R-T790-C797S, CellTiter-Glo, read-out: L858R-T790-C797S/BaF3 GI50) was 49 nM and the GI50 ([1]; BaF3 cells, EGFR L858R-T790M, CellTiter-Glo, read-out: L858R-T790M/BaF3 GI50) was 343 nM. The GI50 ([1]; EGFR DEL19-T790M, CellTiter-Glo, read-out: DEL19-T790M GI50) was 171 nM, the IC50 (EGFR (d746-750 C797S); EGFR Del19-C797S, 1 h, room temperature, read-out: IC50 (nM) @Del19-C797S) was 391 nM and the IC50 (EGFR L858R/T790M; EGFR L858R-T790M, 1 h, room temperature, read-out: IC50 (nM) @L858R-T790M) was over 5000 nM. For the same molecule, the IC50 ([2]; EGFR T790M-C797S-Del19, 1 mM ATP, 1 h, room temperature, read-out: IC50 (nM) @T790M - C797S - Del19) was 2080 nM and the IC50 (EGFR L858R; 1 h, room temperature, read-out: IC50 (nM) @L858R) was 1270 nM.
